{
  "source": "patent US10882859B2",
  "about": "“Kinase inhibitors” (Topivert Pharma Limited, priority 2015, dated 2021)",
  "key": {"JAK1": {"biological_target": "JAK1 (Homo sapiens (Human), UniProt P23458)", "sequence (P23458 whole entry)": "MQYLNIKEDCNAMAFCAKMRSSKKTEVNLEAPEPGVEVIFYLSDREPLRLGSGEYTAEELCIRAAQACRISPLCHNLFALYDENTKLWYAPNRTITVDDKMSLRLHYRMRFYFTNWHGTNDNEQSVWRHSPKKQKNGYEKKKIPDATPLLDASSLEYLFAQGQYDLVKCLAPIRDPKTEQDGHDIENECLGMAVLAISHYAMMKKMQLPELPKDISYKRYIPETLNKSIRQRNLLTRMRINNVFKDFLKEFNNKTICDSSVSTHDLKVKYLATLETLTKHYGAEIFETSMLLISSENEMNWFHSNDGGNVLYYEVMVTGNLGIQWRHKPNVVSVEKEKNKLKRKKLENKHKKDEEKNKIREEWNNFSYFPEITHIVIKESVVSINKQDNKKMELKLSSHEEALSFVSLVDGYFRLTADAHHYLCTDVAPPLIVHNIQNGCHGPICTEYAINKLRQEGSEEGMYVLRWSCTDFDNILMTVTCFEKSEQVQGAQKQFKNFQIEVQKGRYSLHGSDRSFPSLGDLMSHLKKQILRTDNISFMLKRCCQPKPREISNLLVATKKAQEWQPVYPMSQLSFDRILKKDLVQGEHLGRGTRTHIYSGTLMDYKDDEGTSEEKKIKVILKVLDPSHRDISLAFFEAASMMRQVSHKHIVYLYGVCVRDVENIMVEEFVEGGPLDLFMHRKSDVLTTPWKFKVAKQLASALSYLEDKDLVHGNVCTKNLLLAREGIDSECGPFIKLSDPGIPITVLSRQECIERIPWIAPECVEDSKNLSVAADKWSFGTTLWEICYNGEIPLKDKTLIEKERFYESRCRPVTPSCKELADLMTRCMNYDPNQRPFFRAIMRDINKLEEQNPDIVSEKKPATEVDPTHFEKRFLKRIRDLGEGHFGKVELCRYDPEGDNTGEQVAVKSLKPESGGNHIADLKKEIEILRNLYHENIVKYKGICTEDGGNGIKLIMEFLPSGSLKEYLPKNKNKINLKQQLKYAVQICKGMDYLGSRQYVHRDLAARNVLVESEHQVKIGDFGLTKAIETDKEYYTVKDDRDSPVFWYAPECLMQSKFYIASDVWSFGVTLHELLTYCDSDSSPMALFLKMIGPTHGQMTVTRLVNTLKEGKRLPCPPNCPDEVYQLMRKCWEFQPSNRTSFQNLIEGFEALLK", "assay": "KINOMEscan enzyme binding assay (DiscoveRx), JAK1", "details": "read-out: Dissociation Constant JAK1", "description": "(§1) These assays may be conducted by DiscoveRx (formerly Ambit; San Diego, Calif.). The percentage inhibition produced by incubation with a test compound may be calculated relative to the non-inhibited control."}, "JAK2": {"biological_target": "JAK2 (Homo sapiens (Human), UniProt O60674)", "sequence (O60674 whole entry)": "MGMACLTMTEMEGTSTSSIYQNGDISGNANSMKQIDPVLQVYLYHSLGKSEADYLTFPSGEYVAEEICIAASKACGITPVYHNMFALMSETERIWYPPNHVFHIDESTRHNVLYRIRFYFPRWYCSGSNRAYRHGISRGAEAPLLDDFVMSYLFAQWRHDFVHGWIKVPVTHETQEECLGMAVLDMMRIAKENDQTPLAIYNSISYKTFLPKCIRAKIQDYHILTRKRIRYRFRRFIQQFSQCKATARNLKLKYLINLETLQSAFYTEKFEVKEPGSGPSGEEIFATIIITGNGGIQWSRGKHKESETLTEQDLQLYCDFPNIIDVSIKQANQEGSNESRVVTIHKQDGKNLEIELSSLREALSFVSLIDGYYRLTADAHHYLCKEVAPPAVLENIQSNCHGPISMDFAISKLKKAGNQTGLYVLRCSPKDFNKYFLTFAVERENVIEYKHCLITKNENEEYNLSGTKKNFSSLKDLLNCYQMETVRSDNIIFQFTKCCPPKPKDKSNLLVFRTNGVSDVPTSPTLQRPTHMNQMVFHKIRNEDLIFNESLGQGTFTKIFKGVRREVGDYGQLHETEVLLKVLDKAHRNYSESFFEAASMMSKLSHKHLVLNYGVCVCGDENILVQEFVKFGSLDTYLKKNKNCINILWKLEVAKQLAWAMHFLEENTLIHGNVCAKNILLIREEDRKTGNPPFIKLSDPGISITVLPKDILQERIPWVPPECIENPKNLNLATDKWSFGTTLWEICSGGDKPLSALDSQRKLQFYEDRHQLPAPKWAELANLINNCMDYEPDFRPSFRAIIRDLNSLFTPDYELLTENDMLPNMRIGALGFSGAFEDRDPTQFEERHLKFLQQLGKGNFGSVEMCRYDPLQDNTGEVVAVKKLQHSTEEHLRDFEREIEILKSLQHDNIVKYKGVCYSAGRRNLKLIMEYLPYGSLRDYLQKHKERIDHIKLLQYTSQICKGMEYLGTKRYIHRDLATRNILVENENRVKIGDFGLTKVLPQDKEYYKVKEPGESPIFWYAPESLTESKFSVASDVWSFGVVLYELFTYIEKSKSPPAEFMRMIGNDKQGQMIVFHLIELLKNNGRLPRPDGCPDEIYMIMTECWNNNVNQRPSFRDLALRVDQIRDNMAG", "assay": "KINOMEscan enzyme binding assay (DiscoveRx), JAK2", "details": "read-out: Dissociation Constant JAK2", "description": "as §1"}, "JAK3": {"biological_target": "JAK3 (Homo sapiens (Human), UniProt P52333)", "sequence (P52333 whole entry)": "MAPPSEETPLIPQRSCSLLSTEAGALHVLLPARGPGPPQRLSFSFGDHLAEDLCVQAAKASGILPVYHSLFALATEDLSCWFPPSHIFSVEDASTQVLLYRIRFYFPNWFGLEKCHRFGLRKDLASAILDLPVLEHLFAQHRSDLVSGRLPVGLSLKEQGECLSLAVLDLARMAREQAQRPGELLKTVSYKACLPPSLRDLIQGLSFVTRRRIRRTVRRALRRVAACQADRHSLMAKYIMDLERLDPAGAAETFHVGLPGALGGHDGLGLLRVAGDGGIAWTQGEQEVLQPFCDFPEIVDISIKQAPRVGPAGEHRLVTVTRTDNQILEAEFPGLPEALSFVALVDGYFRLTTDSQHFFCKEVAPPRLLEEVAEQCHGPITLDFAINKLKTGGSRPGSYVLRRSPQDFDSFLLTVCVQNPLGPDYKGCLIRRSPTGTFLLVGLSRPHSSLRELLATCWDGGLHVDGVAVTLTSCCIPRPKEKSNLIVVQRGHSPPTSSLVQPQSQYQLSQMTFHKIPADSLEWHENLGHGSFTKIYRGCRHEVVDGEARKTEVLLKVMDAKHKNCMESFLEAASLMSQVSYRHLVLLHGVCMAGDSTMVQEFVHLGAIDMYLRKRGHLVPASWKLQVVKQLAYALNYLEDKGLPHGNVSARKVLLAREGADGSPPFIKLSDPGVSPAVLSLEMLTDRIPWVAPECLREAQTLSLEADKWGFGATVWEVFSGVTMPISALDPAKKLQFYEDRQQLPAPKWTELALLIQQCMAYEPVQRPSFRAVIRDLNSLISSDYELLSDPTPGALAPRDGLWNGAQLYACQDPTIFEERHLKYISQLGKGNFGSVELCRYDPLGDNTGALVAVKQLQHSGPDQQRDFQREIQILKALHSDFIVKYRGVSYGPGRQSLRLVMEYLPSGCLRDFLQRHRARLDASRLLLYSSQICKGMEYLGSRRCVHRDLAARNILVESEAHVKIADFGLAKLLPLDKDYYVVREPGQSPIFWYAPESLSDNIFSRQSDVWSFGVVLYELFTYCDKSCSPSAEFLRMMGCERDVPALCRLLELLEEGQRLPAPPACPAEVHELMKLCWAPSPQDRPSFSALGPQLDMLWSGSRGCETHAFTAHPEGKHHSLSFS", "assay": "KINOMEscan enzyme binding assay (DiscoveRx), JAK3", "details": "read-out: Dissociation Constant JAK3", "description": "as §1"}, "TYK2": {"biological_target": "TYK2 (Homo sapiens (Human), UniProt P29597)", "sequence (P29597 whole entry)": "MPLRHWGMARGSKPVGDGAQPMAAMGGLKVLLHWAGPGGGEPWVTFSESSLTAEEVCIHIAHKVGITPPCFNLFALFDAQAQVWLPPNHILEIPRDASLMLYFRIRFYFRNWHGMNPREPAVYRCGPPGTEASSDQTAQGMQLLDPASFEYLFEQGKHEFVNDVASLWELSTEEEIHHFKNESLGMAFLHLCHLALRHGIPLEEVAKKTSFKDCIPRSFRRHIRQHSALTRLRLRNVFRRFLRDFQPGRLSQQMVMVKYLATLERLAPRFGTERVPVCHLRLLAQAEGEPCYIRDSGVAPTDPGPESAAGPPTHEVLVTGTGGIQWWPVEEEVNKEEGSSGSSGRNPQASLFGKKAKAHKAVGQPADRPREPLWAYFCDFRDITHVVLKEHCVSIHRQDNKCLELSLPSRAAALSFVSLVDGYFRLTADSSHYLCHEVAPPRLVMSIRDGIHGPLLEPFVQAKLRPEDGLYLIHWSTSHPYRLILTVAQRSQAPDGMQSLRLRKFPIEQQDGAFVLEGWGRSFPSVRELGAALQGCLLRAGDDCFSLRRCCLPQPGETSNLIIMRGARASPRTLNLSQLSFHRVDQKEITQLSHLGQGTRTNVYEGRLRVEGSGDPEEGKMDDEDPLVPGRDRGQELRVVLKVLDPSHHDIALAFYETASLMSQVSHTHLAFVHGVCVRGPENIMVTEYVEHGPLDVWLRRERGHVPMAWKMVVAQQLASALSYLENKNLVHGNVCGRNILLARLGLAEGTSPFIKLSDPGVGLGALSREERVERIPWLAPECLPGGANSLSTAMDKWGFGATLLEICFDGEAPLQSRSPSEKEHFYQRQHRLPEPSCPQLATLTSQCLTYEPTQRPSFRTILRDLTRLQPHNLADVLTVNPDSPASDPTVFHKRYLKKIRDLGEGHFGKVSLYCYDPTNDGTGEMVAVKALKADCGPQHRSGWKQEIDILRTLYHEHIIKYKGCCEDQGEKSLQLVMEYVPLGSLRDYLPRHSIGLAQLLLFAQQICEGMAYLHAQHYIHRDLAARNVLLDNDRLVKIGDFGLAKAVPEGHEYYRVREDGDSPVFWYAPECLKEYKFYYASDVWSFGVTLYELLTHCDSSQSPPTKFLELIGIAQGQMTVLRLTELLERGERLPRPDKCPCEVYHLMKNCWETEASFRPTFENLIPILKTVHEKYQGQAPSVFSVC", "assay": "KINOMEscan enzyme binding assay (DiscoveRx), TYK2", "details": "read-out: Dissociation Constant TYK2", "description": "as §1"}, "[1]": {"tested_on": "CD3/IL2 stimulated PBMC cells", "assay": "IFNγ release from CD3/IL2 stimulated PBMC cells", "assay_type": "cell-based", "details": "Homo sapiens, CD3/IL2 stimulation, 48 h, ELISA", "description": "PBMCs from healthy subjects are separated from whole blood using a density gradient (Lymphoprep, Axis-Shield Healthcare). Cells are added to a 96 well plate, and compound at the desired concentration added 2 hours prior to stimulation with a mixture of monoclonal antibody to CD3 (1 μg/ml, eBioscience) and human recombinant IL2 (10 ng/ml, Peprotech). After 48 hours incubation under normal tissue culture conditions, supernatants are collected and IFNγ release determined by Sandwich ELISA (Duo-set, R&D System). The IC50 is determined from the dose response curve."}, "Jurkat cells": {"tested_on": "Jurkat cells", "assay": "Cell cytotoxicity assay (propidium iodide, flow cytometry)", "assay_type": "cell-based, human", "details": "24 h", "description": "1×10^5 Jurkat cells (immortalised human T lymphocytes) are added to the appropriate number of wells of a 96 well plate in 100 μL of media (RPMI supplemented with 10% foetal bovine serum). 1 μL of DMSO control (final concentration 1.0% v/v) or test compound (final concentration 20, 5 or 1 μg/mL) is added to the wells and incubated at 37° C., 5% CO2. After 24 hours, the plate is centrifuged at 1200 rpm for 3 minutes and the supernatant discarded. Cells are then resuspended in 150 μL (final concentration 7.5 μg/mL) of propidium iodide (PI) in PBS and incubated at 37° C., 5% CO2 for 15 minutes. After 15 minutes, cells are analysed by flow cytometry (BD accuri) using the FL3 window. The % viability is calculated as the % of cells that are PI negative in the test wells normalised to the DMSO control."}, "[2]": {"assay": "Solubility in fasted-state simulated colonic fluid (FaSSCoF)", "assay_type": "physicochemical", "details": "25 °C, pH 6.5, fassgf or other biorelevant, thermodynamic from solid, pH 6.5, 25° C.", "description": "The solubilities of compounds of the invention in FaSSCoF at pH 6.5 are determined using a modification of a previously-reported procedure (Vertzoni, M., et al. Pharm. Res. 2010, 27, 2187-2196). In place of the bile salt extract employed in the original procedure (which extract is no longer available), the modified procedure uses a mixture of sodium taurochlorate (0.15 g), glycocholic acid (0.15 g), ursodeoxycholic acid (0.05 g), cholic acid (0.05 g), and glycodeoxycholic acid (0.05 g). These five bile acids are ground together with a mortar and pestle to produce a fine white powder that is incorporated into the FaSSCoF, as outlined below.\nFaSSCoF medium: Tris(hydroxymethyl)aminomethane (Tris; 0.275 g) and maleic acid (0.44 g) are dissolved in water (35 mL) to give a solution whose pH is adjusted to 6.5 by treatment with 0.5M NaOH (ca. 12 mL). The solution is then made up to 50 mL with water. A portion of this Tris/maleate buffer solution (ca. 25 mL) is added to a 0.5 L round-bottomed flask, before being treated with 0.00565 g of the bile acid mixture described above. Solutions of phosphatidylcholine (0.0111 g) in DCM (0.15 mL) and palmitic acid (0.0013 g) in DCM (0.15 mL) are added, then the organic solvent is evaporated off under reduced pressure at 40° C. until a clear solution, with no perceptible DCM odour, is achieved. The volume of the evaporated solution is adjusted to 50 mL by addition of the remainder of Tris/maleate buffer, then BSA (0.115 g) is added, before being dissolved by gentle agitation.\nSolubility Determination: Test compounds are suspended in the pH 6.5 FaSSCoF medium to give a maximum final concentration of 2-10 mg/mL. The suspensions are equilibrated at 25° C. for 24 h, before being filtered through a glass fibre C filter. The filtrates are then diluted as appropriate for injection and quantification by HPLC with reference to a standard. Different volumes of the standard, diluted and undiluted sample solutions are injected and the solubilities are calculated using the peak areas determined by integration of the peak found at the same retention time as the principal peak in the standard injection."}, "[3]": {"assay": "Systemic pharmacokinetics and total colon tissue distribution after single oral administration", "assay_type": "in vivo, male C57BL/6 mice", "details": "mice, oral 10 mg/kg; for concentration at 0.5 h / concentration at 1 h / concentration at 2 h / concentration at 4 h / concentration at 6 h / concentration at 8 h / concentration at 12 h / concentration at 24 h: male, C57BL/6, mouse", "description": "Studies were conducted by Sai Life Sciences (Hinjewadi, Pune, India) to investigate the systemic pharmacokinetics and total colon tissue distribution of compounds of the invention following a single oral administration in male C57BL/6 mice.\nA group of twenty four male mice were administered with a solution of test compound formulated at a dose of 10 mg/10 mL/kg in aqueous hydroxypropyl-β-cyclodextrin (20% w/v in water). Blood samples ([…]) were collected from retro-orbital plexus of each mouse under light isoflurane anaesthesia such that the samples were obtained at 0.5, 1, 2, 4, 6, 8, 12 and 24 hr. The blood samples were collected from a set of three mice at each time point in a labeled micro centrifuge tube containing K2EDTA as anticoagulant. Plasma samples were separated by centrifugation at 4000 rpm for 10 min and stored below −70° C. until bioanalysis. After collection of blood sample, animals were humanely euthanized by carbon dioxide asphyxiation to collect total colon tissues. The colons were flushed with cold PBS (pH7.4) to remove contents. The total colon tissues were homogenized with cold PBS (pH7.4) of twice the weight of colon tissue and stored below −70° C. Total volume was three times the total colon tissue weights. All samples were processed for analysis by protein precipitation using acetonitrile and analyzed with a fit-for-purpose LC-MS/MS method. Pharmacokinetic parameters were calculated using the non-compartmental analysis tool of Phoenix WinNonlin® (Version 6.3)."}, "[4]": {"details": "total colon tissue, total colon, read-out: Mean total colon level"}, "[5]": {"details": "plasma, read-out: Mean plasma concentration"}},
  "note": "Where two headings read alike, the source gives them in different places.",
  "data": [
    {"smiles": "CCc1cc(O)c(F)cc1-c1ccc2c(-c3nc4c([nH]3)CCN(C(=O)N3CCOCC3)C4)n[nH]c2c1", "note": "[Example 1, (2-(6-(2-Ethyl-5-fluoro-4-hydroxyphenyl)-1H-indazol-3-yl)-1,4,6,7-tetrahydro-5H-imidazo[4,5-c]pyridin-5-yl)(morpholino)methanone]", "values": [
      {"measurement": "Kd", "setting": "JAK1", "value": 0.62, "unit": "nM"},
      {"measurement": "Kd", "setting": "JAK2", "value": 0.052, "unit": "nM"},
      {"measurement": "Kd", "setting": "JAK3", "value": 0.098, "unit": "nM"},
      {"measurement": "Kd", "setting": "TYK2", "value": 0.11, "unit": "nM"},
      {"measurement": "IC50", "setting": "[1]", "value": 3.6, "unit": "nM"},
      {"measurement": "% viability at 1 μg/mL", "setting": "Jurkat cells", "value": 40, "unit": "%"},
      {"measurement": "solubility thermodynamic at 24 h", "setting": "[2]; Run 1, read-out: pH 6.5 FaSSCoF Solubility, Run 1", "value": 40, "unit": "µg/mL"},
      {"measurement": "solubility thermodynamic at 24 h", "setting": "[2]; Run 2, read-out: pH 6.5 FaSSCoF Solubility, Run 2", "value": 20, "unit": "µg/mL"},
      {"measurement": "concentration at 0.5 h", "setting": "[3]; [4]", "value": 327, "unit": "ng/g"},
      {"measurement": "concentration at 1 h", "setting": "[3]; [4]", "value": 984, "unit": "ng/g"},
      {"measurement": "concentration at 2 h", "setting": "[3]; [4]", "value": 19700, "unit": "ng/g"},
      {"measurement": "concentration at 4 h", "setting": "[3]; [4]", "value": 4690, "unit": "ng/g"},
      {"measurement": "concentration at 6 h", "setting": "[3]; [4]", "value": 8440, "unit": "ng/g"},
      {"measurement": "concentration at 8 h", "setting": "[3]; [4]", "value": 11900, "unit": "ng/g"},
      {"measurement": "concentration at 12 h", "setting": "[3]; [4]", "value": 4790, "unit": "ng/g"},
      {"measurement": "concentration at 24 h", "setting": "[3]; [4]", "value": 350, "unit": "ng/g"},
      {"measurement": "concentration at 0.5 h", "setting": "[3]; [5]", "value": 6.1, "unit": "ng/mL"},
      {"measurement": "concentration at 1 h", "setting": "[3]; [5]", "value": 1.8, "unit": "ng/mL"},
      {"measurement": "concentration at 2 h", "setting": "[3]; [5]", "value": 1.9, "unit": "ng/mL"},
      {"measurement": "concentration at 4 h", "setting": "[3]; [5]", "value": 0, "unit": "ng/mL"},
      {"measurement": "concentration at 6 h", "setting": "[3]; [5]", "value": 0, "unit": "ng/mL"},
      {"measurement": "concentration at 8 h", "setting": "[3]; [5]", "value": 0, "unit": "ng/mL"},
      {"measurement": "concentration at 12 h", "setting": "[3]; [5]", "value": 0, "unit": "ng/mL"},
      {"measurement": "concentration at 24 h", "setting": "[3]; [5]", "value": 0, "unit": "ng/mL"},
      {"measurement": "Systemic plasma exposure", "setting": "[3]; plasma", "value": "very low"},
      {"measurement": "Colonic exposure AUC0-24 h", "setting": "[3]; total colon", "value": "132,979 h·ng/g"}
    ]}
  ]
}
